Here are results for one molecule from PMC4129416, “YLT192, a Novel, Orally Active Bioavailable Inhibitor of VEGFR2 Signaling with Potent Antiangiogenic Activity and Antitumor Efficacy in Preclinical Models” (Scientific Reports, 2014).

In experiment [1] the test system is HCT116 tumors. In words: Subcutaneous xenograft model. The class given is in vivo. Particulars: 100 mg/kg oral once daily; HCT116 xenograft in nude mice; vs vehicle. How it is done:
(§1) Figure 5 Anti-tumor activities of YLT192 in vivo. (A) U251 and HCT116 tumor-bearing mice were treated orally with YLT192 at 25, 50 and 100 mg/kg or vehicle daily, respectively. […] (B) Body weight changes in YLT192 and vehicle treated mice. […] For A and B, data are means ± SD. (C) and (D), YLT192 inhibited tumor cell proliferation in HCT116 tumor tissues in vivo. Mice bearing HCT116 tumor xenograft were treated with YLT192 at 50 and 100 mg/kg or vehicle and sacrificed at the end of the experiment. The tumor tissues were removed for further immunohistochemistry analysis using anti-Ki67 (C) and anti-p-p44/42 MAPK antibodies (D). (E) YLT192 induced tumor cell apoptosis in HCT116 tumor in vivo. Apoptosis was measured by TUNEL staining (n = 6 mice per group). Scale bars represent 100 μm.
(§2) All animal experiments were approved and conducted by the Institutional Animal Care and Treatment Committee of Sichuan University in China (Permit Number: 20121205). […] Tumor growth and body weight was measured every three days during the treatment. Tumor volumes were calculated using the formula as follow: volume (mm^3) = 0.5 × length (mm) × width (mm)^2. Growth inhibition was calculated from the start of treatment by comparison of the mean change in tumor volume for vehicle and treated group as before.

The test system of experiment [2] is U251 tumors. In words: Subcutaneous xenograft model. The class given is in vivo. The settings on record: 100 mg/kg oral once daily; U251 xenograft in nude mice; vs vehicle. How it is done: as §1, §2
Experiment [3] relates to alginate beads containing CT26 tumor cells. Kind of experiment: Alginate-encapsulated tumor cell assay. In kind it is in vivo, mice. The settings on record: 100 mg/kg oral once daily, 14 days, vs vehicle. How it is done:
Figure 3 YLT192 inhibited angiogenesis in vivo. (A) Fluorescent images of 30 hpf zebrafish treated with vehicle or concentrations of YLT192. ISV growth was inhibited by YLT192. One representative experiment of three is shown. Data are means ± SEM (n = 10 per group), *P < 0.05, **P < 0.01. Scale bars represent 100 μm. […] Frozen sections of HCT116 tumors were tested by immunohistochemistry analysis with anti-CD31 antibody. Representative images of the tumor vasculature from vehicle and YLT192 treated mice were shown. The fields were averaged in each tumor, and the averages for each animal were used to give the final mean ± SD (n = 6 mice per group). *P < 0.05, **P < 0.01. Scale bars represent 100 μm. […] Alginate beads containing 5 × 10^4 CT26 cells were implanted s.c. into the backs of mice. Mice were then orally treated with YLT192 or vehicle once daily. Beads were surgically removed 14 days later and FITC-dextran was quantified. […] Data are means ± SD (n = 6 mice per group), *P < 0.05, **P < 0.01. Scale bars represent 500 μm.
To determine whether YLT192 could inhibit angiogenesis induced by tumor cells in vivo, we did the alginate-encapsulated tumor cell assay as described previously. […] The content of FITC-dextran in the beads was quantified as described previously.

The test system of experiment [4] is VEGFR2 signaling pathway in HUVEC. In words: Western blot of VEGF-induced VEGFR2 phosphorylation and downstream signalling in HUVEC. In kind it is cell-based, human. Particulars: concentration-dependent. How it is done:
Figure 2 Effects of YLT192 on HUVECs proliferation, migration, invasion and tube formation. […] Cells were wounded by the pipette and then treated with various concentrations of compounds for 24 hours. Migrated cells were quantified by manual counting (50×). […] The bottom chambers of the transwells were filled with 600 μL EGM2 containing various growth factors while the top chambers were seeded with 4 × 10^4 HUVECs in EBM2 and treated with different concentrations of compounds for 24 hours. Cells invaded through the membrane were stained and quantified (100×). […] HUVECs were seeded on Matrigel layer and treated with different concentrations of compounds. HUVECs tube formation was assessed 6 hours later (50×). One representative experiment of three is shown. For (A), (B) and (C), data represent the mean ± SEM of three different experiments. Each experiment was performed in duplicate.*P < 0.05, **P < 0.01. (D) YLT192 inhibited VEGF-induced phosphorylation of VEGFR2 and its downstream signal regulator p44/42 MAPK, STAT3 and AKT in HUVECs. One representative Western blot of three is presented. Each has the expression of β-actin as internal control. The full size blots were shown in the Supplemental Figure S5 online. (E) Cellular thermal shift assay showing VEGFR2 target engagement by YLT192 in intact HUVECs. One representative Western blot of two is presented. […]
(In general: A western blot detects proteins with antibodies after separation by electrophoresis.)

Experiment [5] has as its system HCT116. In words: Inhibition of tumor cell growth. In kind it is cell-based. The settings on record: HCT-116; HCT116, human colorectal carcinoma; 48 hour treatment; means ± SD, n=3. The source says:
Data are means ± SD, n=3.
cell line cell type IC50(μM)

For the molecule `CNC(=O)c1cc(Oc2ccc(NC(=O)c3cccc(OC)c3)cc2)ccn1` [YLT192], the tumor volume inhibition in experiment [1] came out at 61%; in experiment [2] it was 60%. Also, the “reduction of accumulation of FITC-dextran” value in experiment [3] came to 66%. The “VEGF-stimulated phosphorylation of VEGFR2 and downstream p44/42 MAPK, AKT, and STAT3” value in experiment [4] is “clearly reduced”. The molecule also registered a 50% inhibitory concentration (IC50) in experiment [5] of 7.4 ± 0.5 µM.

In general, IC50 refers to the midpoint of a concentration-inhibition curve. A low value points to higher potency.
